These results are taken from PubChem BioAssay (NCI).

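In this assay, cells in 96-well plates receive the compound at five concentrations for 48 hours. Endpoints are linearly interpolated between the surrounding concentrations. At the TGI there is no net growth.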

The first assay deals with NCI-H226 lung. The experiment in a line: inhibition of tumour cell growth, NCI panel, 48 h.
For `O=C(c1cccs1)N(C(=O)N1CCN(c2ccccc2)CC1)S(=O)(=O)c1ccccc1`, the TGI turned out to be 53.8 µM.

In turn, `[N-]=[N+]=Nc1cc(=O)n2c3c(cccc13)CCC2` displayed a TGI of more than 100 µM.

In turn, `C=C(C(=O)O)[C@@H]1C[C@@H](OC(C)=O)[C@]2(C)CC/C=C(\C)CCC[C@H](C)[C@H](O)[C@@H]1O2` showed a TGI of more than 100 µM.

`CCCCCCOc1ccc(Nc2c(O)c3c(c(O)c2Cl)C(=O)C=CC3=O)cc1` gave a TGI of more than 10 µM.

For a further assay, the system named is KM12 colon. In words: inhibition of tumour cell growth, NCI panel, 48 h.
Regarding `O=C(c1cccs1)N(C(=O)N1CCN(c2ccccc2)CC1)S(=O)(=O)c1ccccc1`, the TGI is more than 100 µM.

The molecule `[N-]=[N+]=Nc1cc(=O)n2c3c(cccc13)CCC2` displayed a TGI of more than 100 µM.

`C=C(C(=O)O)[C@@H]1C[C@@H](OC(C)=O)[C@]2(C)CC/C=C(\C)CCC[C@H](C)[C@H](O)[C@@H]1O2` had a TGI of more than 100 µM.

`CCCCCCOc1ccc(Nc2c(O)c3c(c(O)c2Cl)C(=O)C=CC3=O)cc1` showed a TGI of more than 7.66 µM.

Another assay relates to SK-OV-3 ovarian. In words: inhibition of tumour cell growth, NCI panel, 48 h.
On to `O=C(c1cccs1)N(C(=O)N1CCN(c2ccccc2)CC1)S(=O)(=O)c1ccccc1`, for which the TGI is more than 100 µM.

For the molecule `C=C(C(=O)O)[C@@H]1C[C@@H](OC(C)=O)[C@]2(C)CC/C=C(\C)CCC[C@H](C)[C@H](O)[C@@H]1O2`, the TGI is more than 100 µM.

Take `CCCCCCOc1ccc(Nc2c(O)c3c(c(O)c2Cl)C(=O)C=CC3=O)cc1`: the TGI is more than 10 µM.

Another assay deals with IGROV1 ovarian. The experiment in a line: inhibition of tumour cell growth, NCI panel, 48 h.
As to `[N-]=[N+]=Nc1cc(=O)n2c3c(cccc13)CCC2`, the TGI was more than 100 µM.

On to `C=C(C(=O)O)[C@@H]1C[C@@H](OC(C)=O)[C@]2(C)CC/C=C(\C)CCC[C@H](C)[C@H](O)[C@@H]1O2`, for which the TGI was more than 100 µM.

The next assay deals with NCI-H522 lung. The experiment in a line: inhibition of tumour cell growth, NCI panel, 48 h.
`O=C(c1cccs1)N(C(=O)N1CCN(c2ccccc2)CC1)S(=O)(=O)c1ccccc1` gave a TGI of 34.2 µM.

Consider `[N-]=[N+]=Nc1cc(=O)n2c3c(cccc13)CCC2`, for which the TGI was more than 100 µM.

`C=C(C(=O)O)[C@@H]1C[C@@H](OC(C)=O)[C@]2(C)CC/C=C(\C)CCC[C@H](C)[C@H](O)[C@@H]1O2` came in with a TGI of 48.4 µM.

The molecule `CCCCCCOc1ccc(Nc2c(O)c3c(c(O)c2Cl)C(=O)C=CC3=O)cc1` yielded a TGI of 3.98 µM.

The next assay has as its system UO-31 renal. In words: inhibition of tumour cell growth, NCI panel, 48 h.
`O=C(c1cccs1)N(C(=O)N1CCN(c2ccccc2)CC1)S(=O)(=O)c1ccccc1` came in with a TGI of 40.8 µM.

Turning to `[N-]=[N+]=Nc1cc(=O)n2c3c(cccc13)CCC2`, the TGI is more than 100 µM.

Take `CCCCCCOc1ccc(Nc2c(O)c3c(c(O)c2Cl)C(=O)C=CC3=O)cc1`: the TGI is more than 5.81 µM.

The next assay concerns SNB-75 CNS. In words: inhibition of tumour cell growth, NCI panel, 48 h.
On to `O=C(c1cccs1)N(C(=O)N1CCN(c2ccccc2)CC1)S(=O)(=O)c1ccccc1`, for which the TGI is 61.2 µM.

`[N-]=[N+]=Nc1cc(=O)n2c3c(cccc13)CCC2` had a TGI of more than 100 µM.

`C=C(C(=O)O)[C@@H]1C[C@@H](OC(C)=O)[C@]2(C)CC/C=C(\C)CCC[C@H](C)[C@H](O)[C@@H]1O2` returned a TGI of more than 100 µM.

In turn, `CCCCCCOc1ccc(Nc2c(O)c3c(c(O)c2Cl)C(=O)C=CC3=O)cc1` had a TGI of more than 10 µM.

The subject of a further assay is MDA-MB-231 breast. The experiment in a line: inhibition of tumour cell growth, NCI panel, 48 h.
On to `O=C(c1cccs1)N(C(=O)N1CCN(c2ccccc2)CC1)S(=O)(=O)c1ccccc1`, for which the TGI came to 51.6 µM.

`[N-]=[N+]=Nc1cc(=O)n2c3c(cccc13)CCC2` had a TGI of more than 100 µM.

For the molecule `C=C(C(=O)O)[C@@H]1C[C@@H](OC(C)=O)[C@]2(C)CC/C=C(\C)CCC[C@H](C)[C@H](O)[C@@H]1O2`, the TGI was more than 100 µM.

In the case of `CCCCCCOc1ccc(Nc2c(O)c3c(c(O)c2Cl)C(=O)C=CC3=O)cc1`, the TGI was more than 6.11 µM.

For a further assay, the system named is SNB-19 CNS. The experiment in a line: inhibition of tumour cell growth, NCI panel, 48 h.
For `O=C(c1cccs1)N(C(=O)N1CCN(c2ccccc2)CC1)S(=O)(=O)c1ccccc1`, the TGI worked out at 72.2 µM.

Regarding `CCCCCCOc1ccc(Nc2c(O)c3c(c(O)c2Cl)C(=O)C=CC3=O)cc1`, the TGI is more than 9.63 µM.

The test system of a further assay is SK-MEL-5 melanoma. The experiment in a line: inhibition of tumour cell growth, NCI panel, 48 h.
In turn, `O=C(c1cccs1)N(C(=O)N1CCN(c2ccccc2)CC1)S(=O)(=O)c1ccccc1` showed a TGI of 30.7 µM.

As for `C=C(C(=O)O)[C@@H]1C[C@@H](OC(C)=O)[C@]2(C)CC/C=C(\C)CCC[C@H](C)[C@H](O)[C@@H]1O2`, the TGI was more than 100 µM.

The molecule `CCCCCCOc1ccc(Nc2c(O)c3c(c(O)c2Cl)C(=O)C=CC3=O)cc1` yielded a TGI of 3.02 µM.

The next assay relates to HCT-116 colon. The experiment in a line: inhibition of tumour cell growth, NCI panel, 48 h.
`O=C(c1cccs1)N(C(=O)N1CCN(c2ccccc2)CC1)S(=O)(=O)c1ccccc1` showed a TGI of 38.6 µM.

Consider `[N-]=[N+]=Nc1cc(=O)n2c3c(cccc13)CCC2`, for which the TGI is more than 100 µM.

Molecule `C=C(C(=O)O)[C@@H]1C[C@@H](OC(C)=O)[C@]2(C)CC/C=C(\C)CCC[C@H](C)[C@H](O)[C@@H]1O2` came in with a TGI of more than 100 µM.

Consider `CCCCCCOc1ccc(Nc2c(O)c3c(c(O)c2Cl)C(=O)C=CC3=O)cc1`, for which the TGI is more than 6.12 µM.

Another assay deals with BT-549 breast. In words: inhibition of tumour cell growth, NCI panel, 48 h.
The molecule `O=C(c1cccs1)N(C(=O)N1CCN(c2ccccc2)CC1)S(=O)(=O)c1ccccc1` displayed a TGI of 84 µM.

`[N-]=[N+]=Nc1cc(=O)n2c3c(cccc13)CCC2` displayed a TGI of more than 100 µM.

Take `C=C(C(=O)O)[C@@H]1C[C@@H](OC(C)=O)[C@]2(C)CC/C=C(\C)CCC[C@H](C)[C@H](O)[C@@H]1O2`: the TGI is more than 100 µM.

Turning to `CCCCCCOc1ccc(Nc2c(O)c3c(c(O)c2Cl)C(=O)C=CC3=O)cc1`, the TGI was more than 6.01 µM.

The test system of the next assay is COLO 205 colon. In words: inhibition of tumour cell growth, NCI panel, 48 h.
Molecule `O=C(c1cccs1)N(C(=O)N1CCN(c2ccccc2)CC1)S(=O)(=O)c1ccccc1` registered a TGI of 30.1 µM.

With `[N-]=[N+]=Nc1cc(=O)n2c3c(cccc13)CCC2`, the TGI was more than 100 µM.

The molecule `C=C(C(=O)O)[C@@H]1C[C@@H](OC(C)=O)[C@]2(C)CC/C=C(\C)CCC[C@H](C)[C@H](O)[C@@H]1O2` yielded a TGI of more than 100 µM.

Consider `CCCCCCOc1ccc(Nc2c(O)c3c(c(O)c2Cl)C(=O)C=CC3=O)cc1`, for which the TGI was 4.15 µM.

For the next assay, the system named is UACC-62 melanoma. In words: inhibition of tumour cell growth, NCI panel, 48 h.
Turning to `O=C(c1cccs1)N(C(=O)N1CCN(c2ccccc2)CC1)S(=O)(=O)c1ccccc1`, the TGI was determined as 33.8 µM.

In the case of `[N-]=[N+]=Nc1cc(=O)n2c3c(cccc13)CCC2`, the TGI was more than 100 µM.

`C=C(C(=O)O)[C@@H]1C[C@@H](OC(C)=O)[C@]2(C)CC/C=C(\C)CCC[C@H](C)[C@H](O)[C@@H]1O2` had a TGI of more than 100 µM.

`CCCCCCOc1ccc(Nc2c(O)c3c(c(O)c2Cl)C(=O)C=CC3=O)cc1` displayed a TGI of 7.99 µM.

The test system of a further assay is LOX IMVI melanoma. In words: inhibition of tumour cell growth, NCI panel, 48 h.
With `[N-]=[N+]=Nc1cc(=O)n2c3c(cccc13)CCC2`, the TGI is more than 100 µM.

Molecule `C=C(C(=O)O)[C@@H]1C[C@@H](OC(C)=O)[C@]2(C)CC/C=C(\C)CCC[C@H](C)[C@H](O)[C@@H]1O2` returned a TGI of more than 100 µM.

In the case of `CCCCCCOc1ccc(Nc2c(O)c3c(c(O)c2Cl)C(=O)C=CC3=O)cc1`, the TGI is 3.61 µM.

Another assay has as its system OVCAR-8 ovarian. In words: inhibition of tumour cell growth, NCI panel, 48 h.
In turn, `O=C(c1cccs1)N(C(=O)N1CCN(c2ccccc2)CC1)S(=O)(=O)c1ccccc1` registered a TGI of 39.5 µM.

In turn, `[N-]=[N+]=Nc1cc(=O)n2c3c(cccc13)CCC2` gave a TGI of more than 100 µM.

Molecule `C=C(C(=O)O)[C@@H]1C[C@@H](OC(C)=O)[C@]2(C)CC/C=C(\C)CCC[C@H](C)[C@H](O)[C@@H]1O2` returned a TGI of more than 100 µM.
